Reference: patent publication US20220280661A1, “GLUCOCORTICOID RECEPTOR RADIOLIGANDS AND METHODS FOR THEIR PREPARATION AND USE” (The Regents of the University of California, priority 2019, published 2022)

Target: T1, GR (Mus musculus, UniProt P06537)
T1 construct: from tissue; host or cells: tissues of C57BL6/J mice (intact or adrenalectomized), in vivo
T1 sequence (P06537 1-792): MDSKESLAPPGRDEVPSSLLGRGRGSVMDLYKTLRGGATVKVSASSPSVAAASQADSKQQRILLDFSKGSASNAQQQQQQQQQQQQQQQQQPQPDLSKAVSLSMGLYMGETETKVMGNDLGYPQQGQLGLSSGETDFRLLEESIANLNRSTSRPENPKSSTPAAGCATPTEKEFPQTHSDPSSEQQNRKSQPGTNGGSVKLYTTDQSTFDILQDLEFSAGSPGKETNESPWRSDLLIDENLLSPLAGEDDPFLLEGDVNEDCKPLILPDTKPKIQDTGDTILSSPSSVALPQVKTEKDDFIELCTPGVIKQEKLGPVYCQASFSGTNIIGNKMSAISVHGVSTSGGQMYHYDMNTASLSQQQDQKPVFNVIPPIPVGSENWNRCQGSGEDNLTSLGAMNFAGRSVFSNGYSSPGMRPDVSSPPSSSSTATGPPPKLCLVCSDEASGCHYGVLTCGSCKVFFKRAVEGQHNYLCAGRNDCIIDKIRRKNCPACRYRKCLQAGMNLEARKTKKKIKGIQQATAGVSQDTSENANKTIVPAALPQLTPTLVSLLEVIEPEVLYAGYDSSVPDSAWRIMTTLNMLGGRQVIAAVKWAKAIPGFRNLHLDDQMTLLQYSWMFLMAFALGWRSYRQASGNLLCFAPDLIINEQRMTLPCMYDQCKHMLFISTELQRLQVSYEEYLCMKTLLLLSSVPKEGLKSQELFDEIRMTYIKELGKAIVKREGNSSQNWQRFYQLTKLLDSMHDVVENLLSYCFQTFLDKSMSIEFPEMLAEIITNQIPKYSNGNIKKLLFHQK
Experiment: Radiotracer biodistribution in intact or adrenalectomized mice
Type: in vivo
Settings: 20 min post injection
Method: All animal experiments were conducted under the approval from Institutional Animal Care and Use Committee (IACUC) at UCSF. Male nu nu or C57BL6/J mice (4-6 weeks) purchased from Charles River. All the mice were well-housed in the USCF with free access to food and water. […] The mice were treated once daily for three days. At day 3, the mice received the radiotracer after the final gavage. Adrenalectomized mice were purchased from Charles River, and provided drinking water supplemented with NaCl (aq) per instructions.
For a broader survey of radiotracer biodistribution post mortem, mice were euthanized after radiotracer injection with CO2(g) asphyxiation and dissected at dedicated time points post injection. The blood and tissues were removed, washed, dried and weighed. The activity of each tissue was measured with a gamma counter. All data was decay corrected. PRISM software was used to express a percentage (% ID/g) of the injected dose per gram of tissue. […] Table 2 provides a tabular representation of the biodistribution data collected 30, 60, 90 minutes after injection of [18F]-YJH08 in C57B16/J mice. The data are represented as mean standard deviation of the % ID/g.
To understand if corticosteroid depletion elevated radiotracer uptake in tissues, the biodistribution of [18F]-YJH08 was compared in intact and adrenalectomized (adx) mice. The radiotracer uptake was uniformly higher in the tissues of adx mice compared to intact mice (FIG. 4C and Table 4). Overall, the extent of GR specific binding in tissues observed with [18F]-YJH08 is remarkable considering the previously reported biodistribution data for radiotracers targeting GR, including non-steroidal agonists. See, Wuest, et al. Bioorganic & medicinal chemistry letters 2007, 17 (14), 4035-9.
The P value indicates the result of an unpaired, two-tailed Student's t test between the two arms (n=4/group).
Animal Studies. All animal experiments were performed under the approval of the Institutional Animal Care and Use Committee (IACUC) at UCSF. C57BL6/J mice (4-6 weeks) were purchased from Charles River. All the mice were housed in a dedicated vivarium with free access to food and water. […] Adrenalectomized mice were purchased from Charles River and provided drinking water supplemented with NaCl (aq) per instructions until the time of the tracer biodistribution study.
Biodistribution Studies. Mice were euthanized after radiotracer (7.4-18.5 MBq in 100-150 μL) injection with CO2 (g) asphyxiation and dissected at dedicated time points post injection. The blood and tissues were collected, washed, dried, and weighed. The activity of each tissue was measured with a gamma counter. All data was decay corrected. PRISM software was used to express a percentage (% ID/g) of the injected dose per gram of tissue.
The data were collected in intact male C57B16/J mice at 20 min post injection.
Significant reductions in (±)-^11C-YJH08 tissue uptake were observed by treating mice with Dex-CD at 10 mg/kg via intraperitoneal injection 1 hour before the radiotracer injection (FIG. 7A). […] Specific binding in vivo was further studied by investigating relative tissue uptake in intact versus adrenalectomized mice (adrenalectomy depletes serum corticosteroids and elevates GR expression in tissues). […] Table 8 summarizes the biodistribution data collected 20 minutes after injection of (±)-^11C-YJH08 in intact or adrenalectomized (ADREX) mice. The P value indicates the result of an unpaired, two-tailed Student's t test between the two arms (n=4/group).

[1] = intact C57B16/J mice, listed as (±)-^18F-YJH08

SMILES: COc1cccc2c1-c1ccc3c(c1C(Cc1ccc([18F])cc1)O2)C(C)=CC(C)(C)N3 (racemic) [[18F]-YJH08, [^18F]-5-(4-fluorobenzyl)-10-methoxy-2,2,4-trimethyl-2,5-dihydro-1H-chromeno[3,4-f]quinoline]
- radiotracer uptake, Blood (adrenalectomized mice): 2.67 ± 0.1 % ID/g
- radiotracer uptake, Bone (adrenalectomized mice): 1.45 ± 0.2 % ID/g
- radiotracer uptake, Brain (adrenalectomized mice): 2.42 ± 0.1 % ID/g
- radiotracer uptake, Heart (adrenalectomized mice): 4.75 ± 1.0 % ID/g
- radiotracer uptake, Kidney (adrenalectomized mice): 6.91 ± 0.3 % ID/g
- radiotracer uptake, Large intestine (adrenalectomized mice): 1.34 ± 0.7 % ID/g
- radiotracer uptake, Liver (adrenalectomized mice): 13.28 ± 1.43 % ID/g
- radiotracer uptake, Lung (adrenalectomized mice): 4.35 ± 1.1 % ID/g
- radiotracer uptake, Muscle (adrenalectomized mice): 2.03 ± 0.2 % ID/g
- radiotracer uptake, Pancreas (adrenalectomized mice): 5.25 ± 0.4 % ID/g
- radiotracer uptake, Small intestine (adrenalectomized mice): 27.83 ± 2.89 % ID/g
- radiotracer uptake, Spleen (adrenalectomized mice): 3.25 ± 0.05 % ID/g
- radiotracer uptake, Stomach (adrenalectomized mice): 3.23 ± 3.57 % ID/g
- radiotracer uptake, Supraspinal BAT (adrenalectomized mice): 15.56 ± 3.8 % ID/g
- radiotracer uptake, Adrenal Gland (intact C57B16/J mice): 10.82 ± 5.9 % ID/g
- radiotracer uptake, Blood (intact C57B16/J mice): 2.01 ± 0.4 % ID/g
- radiotracer uptake, Bone (intact C57B16/J mice): 1.39 ± 02 % ID/g
- radiotracer uptake, Brain (intact C57B16/J mice): 1.96 ± 0.09 % ID/g
- radiotracer uptake, Heart (intact C57B16/J mice): 3.92 ± 0.5 % ID/g
- radiotracer uptake, Kidney (intact C57B16/J mice): 5.79 ± 1.0 % ID/g
- radiotracer uptake, Liver (intact C57B16/J mice): 10.68 ± 1.1 % ID/g
- radiotracer uptake, Lung (intact C57B16/J mice): 3.89 ± 0.7 % ID/g
- radiotracer uptake, Muscle (intact C57B16/J mice): 1.53 ± 0.1 % ID/g
- radiotracer uptake, Pancreas (intact C57B16/J mice): 4.40 ± 0.2 % ID/g
- radiotracer uptake, Small intestine (intact C57B16/J mice): 21.22 ± 4.1 % ID/g
- radiotracer uptake, Spleen (intact C57B16/J mice): 2.67 ± −0.5 % ID/g
- radiotracer uptake, Stomach (intact C57B16/J mice): 3.38 ± 2.8 % ID/g
- radiotracer uptake, Supraspinal BAT (brown fat depot) (intact C57B16/J mice): 9.01 ± 2.0 % ID/g
- radiotracer uptake, Adrenal Gland [1]: 12.19 ± 6.46 % ID/g
- radiotracer uptake, Blood [1]: 2.22 ± 0.14 % ID/g
- radiotracer uptake, Bone [1]: 1.3 ± 0.23 % ID/g
- radiotracer uptake, Brain [1]: 1.93 ± 0.07 % ID/g
- radiotracer uptake, Heart [1]: 4.15 ± 0.31 % ID/g
- radiotracer uptake, Kidney [1]: 5.79 ± 1.07 % ID/g
- radiotracer uptake, Liver [1]: 11.08 ± 0.92 % ID/g
- radiotracer uptake, Muscle [1]: 1.53 ± 0.12 % ID/g
- radiotracer uptake, Spleen [1]: 2.46 ± 0.53 % ID/g
- radiotracer uptake, Supraspinal BAT (brown fat depot) [1]: 9.01 ± 2.07 % ID/g

SMILES: CC1=CC(C)(C)Nc2ccc3c(c21)C(Cc1ccc(F)cc1)Oc1cccc(O[11CH3])c1-3 (racemic) [(±)-^11C-YJH08]
- radiotracer uptake, Blood (adrenalectomized mice): 2.79 ± 0.54 % ID/g
- radiotracer uptake, Bone (adrenalectomized mice): 2.03 ± 0.4 % ID/g
- radiotracer uptake, Brain (adrenalectomized mice): 2.28 ± 0.46 % ID/g
- radiotracer uptake, Heart (adrenalectomized mice): 5.63 ± 0.94 % ID/g
- radiotracer uptake, Kidney (adrenalectomized mice): 6.88 ± 1.52 % ID/g
- radiotracer uptake, Liver (adrenalectomized mice): 15.21 ± 3.39 % ID/g
- radiotracer uptake, Muscle (adrenalectomized mice): 2.32 ± 0.5 % ID/g
- radiotracer uptake, Spleen (adrenalectomized mice): 2.88 ± 0.68 % ID/g
- radiotracer uptake, Supraspinal BAT (adrenalectomized mice): 12.01 ± 3.54 % ID/g
- radiotracer uptake, Adrenal Gland (intact C57B16/J mice): 13.88 ± 7.15 % ID/g
- radiotracer uptake, Blood (intact C57B16/J mice): 2.25 ± 0.21 % ID/g
- radiotracer uptake, Bone (intact C57B16/J mice): 1.19 ± 0.13 % ID/g
- radiotracer uptake, Brain (intact C57B16/J mice): 1.81 ± 0.17 % ID/g
- radiotracer uptake, Heart (intact C57B16/J mice): 4.47 ± 0.43 % ID/g
- radiotracer uptake, Kidney (intact C57B16/J mice): 5.82 ± 0.28 % ID/g
- radiotracer uptake, Liver (intact C57B16/J mice): 12.19 ± 1.22 % ID/g
- radiotracer uptake, Muscle (intact C57B16/J mice): 1.53 ± 0.13 % ID/g
- radiotracer uptake, Spleen (intact C57B16/J mice): 2.22 ± 0.33 % ID/g
- radiotracer uptake, Supraspinal BAT (brown fat depot) (intact C57B16/J mice): 9.8 ± 2.83 % ID/g
